Assay results from US20250130239A1, “PROTEIN DEGRADER” (University of Dundee, priority 2021, published 2025).
Several values for one entry are separate records, joined by “and”; a condition that tells them apart may be missing. Equal entries are not always repeated.

How the values were obtained:
MV-4-11 cells = assay: CellTiter-Glo cell viability assay, MV-4-11; type: cell-based, human; details: up to 10 μM; 24 h
Method: Cell Viability Assay. MV-4-11 cells were plated at a density of 2×10^4 cell per well of a 96 well white-bottom plate, and left to grow overnight in 50 μl of IMDM (Invitrogen, arlsebad, CA, USA) supplemented with 10% (v/v) Fetal bovine serum (FBS) (Thermo Fisher, Waltham, MA, USA) and 1% (v/v) penicillin/streptomycin (pen/strep) (#15140122, Thermo Fisher, Waltham, MA, USA) at 37° C., 5% CO2, and 95% humidity. […] These cells were then left to incubate at 37° C., 5% CO2, and 95% humidity for one day prior to undergoing spectrophotometric analysis. 22RV1 cells were plated at a density of 2×10^4 cell per well of a 96 well white-bottom plate, and left to grow overnight in 100 μL of RPMI-1640 (Invitrogen, Carlsebad, CA, USA) supplemented with 10% (v/v) fetal bovine serum (FBS) (Thermo Fisher, Waltham, MA, USA) and 1% (v/v) penicillin/streptomycin (pen/strep) (#15140122, Thermo Fisher, Waltham, MA, USA) at 37° C., 5% CO2, and 95% humidity. […] Plates were subjected to 2 mins on an orbital shaker to encourage lysis and left for a further 5 mins to reach peak luminescence. Luminescence was then recorded on a BMG Labtech PHERAstar luminescence plate reader with recommended settings. Data extracted from this analysis was analysed with Graphpad Prism (v. 8.2.0, GraphPad) and normalized to the DMSO vehicle control. […]

BromoTag-Brd2 = biological target: T1, BromoTag-Brd2 (Homo sapiens, UniProt O60885+P40337, L387A); assay: Dose-response degradation assay (western blot, 6 h) in heterozygous BromoTag-Brd2 HEK293 cells; type: cell-based
T1 construct: comprising residues 368-440 of human Brd4; Brd2 (endogenous protein, fusion partner in the same polypeptide); eGFP-P2A (upstream marker in the knock-in cassette) (N, cleaved yes); expressed in transfected cells; host or cells: HEK293, heterozygous CRISPR knock-in at the endogenous BRD2 locus
T1 sequence (P40337 whole entry, other chains not shown, the tested form may be a part): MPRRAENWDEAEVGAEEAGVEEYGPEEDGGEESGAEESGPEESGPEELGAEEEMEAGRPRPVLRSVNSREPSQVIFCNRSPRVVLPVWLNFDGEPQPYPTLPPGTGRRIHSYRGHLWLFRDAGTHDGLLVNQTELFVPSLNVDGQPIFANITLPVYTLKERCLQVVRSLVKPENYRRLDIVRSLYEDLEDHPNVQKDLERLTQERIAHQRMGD
Method: Dose-response Degradation Assays. All dose-response degradation assays were performed on the genotype verified heterozygous BromoTag-Brd2 HEK293 cell line. Heterozygous BromoTag-Brd2 HEK293 cells were plated at a density of 5×10^5 cells per well of a six healthy plate a day before initiation of the titration experiment. PROTAC compounds were dissolved in DMSO at a concentration of 10 mM, from these stock concentrations, PROTAC compounds were diluted to appropriate concentrations using DMSO in the range of 10 μM-1 nM. […] Control compounds such as MZ1, cis-MZ1 were similarly dissolved in DMSO to the appropriate concentration. […] Cells were washed twice with PBS before being harvested.
Western Blotting. […] The membranes were blocked for 1 h prior to incubation with the primary antibodies using 5% Milk TBST. […] Following overnight incubation with the primary antibodies at 4° C., the membranes were incubated with secondary antibodies (Anti-rabbit, Abcam AB216773, 1:5000 or anti-mouse, Abcam AB216774, 1:5000) and hFAB™ Rhodamine Anti-Tubulin Antibody (Biorad, 12004165, 1:10000) for one h and then imaged with a Bio-Rad imager (LI-COR Biosciences). All western blots were analysed for band intensities using Image Lab from Bio-Rad (LI-COR, Biosciences). The data extracted from these blots were then plotted and analysed using Prism (v. 8.2.0, GraphPad).

[1] = biological target: T2, VPS34/PK3C3 (Q8NEB9), BromoTag N-term (Homo sapiens, UniProt O60885+P40337, L387A); assay: Degradation of BromoTag'ed VPS34/PK3C3 by AGB1; type: cell-based
T2 construct: comprising residues 368-440 of human Brd4; VPS34/PK3C3 (endogenous protein, fusion partner in the same polypeptide); expressed in transfected cells
T2 sequence (P40337 whole entry, other chains not shown, the tested form may be a part): as above
Text: Degradation of a variety of target proteins. […] We performed CRISPR knock-in of the BromoTag, as described, into the endogenous loci of five additional proteins. […] The target proteins of Table 6 are all different, are all known to have different cellular roles and function, intracellular expression, and distinctive turnover rates within cells.

CC[C@@H](C(=O)OCCOCCOCCOCC(=O)N[C@H](C(=O)N1C[C@H](O)C[C@H]1C(=O)NCc1ccc(-c2scnc2C)cc1)C(C)(C)C)[C@@H]1N=C(c2ccc(Cl)cc2)c2c(sc(C)c2C)-n2c(C)nnc21 (single isomer, unassigned) [AGB1 (46)] was tested, and the cytotoxicity (MV-4-11 cells) was “lack of cytotoxicity”, the DC50 (BromoTag-Brd2; 6 h, range over the two antibodies, listed as 46) was 13 to 15 nM and < 15 nM and the pDC50 (BromoTag-Brd2; Ab: Brd4^BD2 L387A, single stereoisomers, 8-point 10 μM-1 nM, 6 h, mean (±S.E.) of two repeats) was 7.8 ± 0.2. For the same molecule, the pDC50 (BromoTag-Brd2; Ab: BromoTag-Brd2, single stereoisomers, 8-point 10 μM-1 nM, 6 h, mean (±S.E.) of two repeats) was 7.9 ± 0.1, the pDC50 (BromoTag-Brd2; BromoTag'ed BRD2 (P25440), N-term tag, Table 6) was 7.8 and the Dmax (BromoTag-Brd2; HEK293, Ab: Brd4^BD2 L387A, single stereoisomers, 6 h) was 99%. For the same molecule, the Dmax [1] was greater than 99% and the pDC50 ([1]; BromoTag'ed VPS34/PK3C3, N-term tag) was 8.0.
